One data set relates to MIN6 cells. The data set is described as follows: Insulin secretion assay in MIN6 cells (ELISA). The format is cell-based, mouse. Here is the method: FIG. 4. The role of Sirt4 in insulin secretion. FIG. 4A. The levels of Sirt4 were reduced in MIN6 cells infected with virus that contained Sirt4 RNAi sequences compared to cells infected with pSUPER. FIG. 4B. Insulin secretion was measured from control or RNAi MIN6 cells. Cells were pre-incubated with KRB buffer containing 3 mM glucose, then cells were shifted to buffer containing either 3 mM (open bars) or 16.7 mM glucose (filled bars). Insulin in the buffer was measured by ELISA after a 45 min incubation at 37° C. FIG. 4C. Insulin remaining inside cells was measured at the end of the insulin secretion assays by ELISA.
FIG. 7. Elevated glutamate dehydrogenase activity contributes to increased insulin secretion in Sirt4 RNAi cells. FIG. 7A. MIN6 cells were co-infected with RNAi for Sirt4 and glutamate dehydrogenase, and protein levels were compared to control infections. FIG. 7B. Insulin secretion assays were performed in double-infected or control cells as described previously. FIG. 7C. Insulin secretion assays were performed in control or Sirt4 RNAi treated cells in the presence or absence of BCH, an activator of glutamate dehydrogenase.
MIN6 cells were plated in the wells of a 12-well plate at least 24-hours before secretion assays. […] Insulin concentration was measured by ELISA (Alpco Diagnostics; Windham, N.H.).
For orientation: ELISA stands for enzyme-linked immunosorbent assay.

Data set [1] concerns bovine recombinant glutamate dehydrogenase. The data set is described as follows: Glutamate dehydrogenase assay after incubation with Sirt4. The format is biochemical. The method, then:
FIG. 6. Glutamate dehydrogenase inhibition by Sirt4. FIG. 6A. The enzymatic activity of glutamate dehydrogenase ([…]) was measured before (open bars, T=0) after a 60 min incubation (filled bars, T=60) at 37° C. with hSirt4-FLAG (50 ng) or a buffer control in the presence of 1 mM NAD^+. Experiments were replicated 3-5 times. FIG. 6B. Inhibition of glutamate dehydrogenase by Sirt4 requires 1 mM NAD^+. Glutamate dehydrogenase (50 mg) was incubated with Sirt4 at 37° C. in the presence (pink) or absence (blue) of 1 mM NAD^+. Aliquots (1 ml) were removed at T=0, 5, 15, 30, 60, or 120 min, and glutamate dehydrogenase activity was measured for each time point. FIG. 6C. The activity of glutamate dehydrogenase was measure in mitochondrial lysates (30 mg) from control or Sirt4 RNAi cells. Experiments were performed 3-5 times using cell lines from two separate infections.
Glutamate dehydrogenase (50 μg; Ultrapure from Sigma) was incubated with or without Sirt4 (10 ng) in […] of ADP-ribosylation buffer (50 mM Tris pH 8.0, 10 mM DTT, 150 mM NaCl) in the presence or absence of 1 mM NAD or 1 mM nicotinamide at 37° C. for the indicated times. Then, an aliquot of the reaction was assayed for glutamate dehydrogenase activity. Activity assays were performed at 25° C. using a BioSpec-1601 spectrophotometer (Shimadzu Scientific Instruments, Inc; Braintree, Mass.) at A340 based on the oxidation of NADH as described previously. Data was collected for 5-10 min. at 10 sec. intervals. At the end of each experiment, less than 10% of substrates had been depleted.
Sirt4 or a buffer control was incubated with bovine recombinant glutamate dehydrogenase for one hour in the presence of NAD. Then, the glutamate dehydrogenase activity was assessed by monitoring the disappearance of NADH (A340). […] To verify that this inhibition was dependent on the availability of NAD^+, we incubated Sirt4 with or without NAD^+ with glutamate dehydrogenase for various times. […]

`NC1(C(=O)O)CC2CCC1C2` (centres unmarked) [BCH]: the results for the “insulin secretion with BCH and 16.7 mM glucose compared to 16.7 mM glucose alone” value in the data set on MIN6 cells (Sirt4 RNAi treated MIN6 cells) and in the data set with MIN6 cells (control MIN6 cells) were “did not secrete more insulin” and “enhanced insulin secretion”, respectively.

Regarding “Sirt4: human Sirt4 with C-terminal FLAG, immunoprecipitated from 293T cells; ADP-ribosyltransferase”, the “inhibition of glutamate dehydrogenase activity” value is on record as “more than 90%” in data set [1] (after incubating for 12 hours) and 50% in data set [1] (within 2 hours, in the presence of NAD+). In data set [1] (incubated one hour in the presence of NAD, versus buffer control), the “enzymatic activity of glutamate dehydrogenase” value is on record as “significantly reduced”.

These data come from patent US8546090B2, “SIRT4 activities” (Massachusetts Institute of Technology, priority 2005, dated 2013).
